Experimental data published in patent publication US5591837A, “5-O-desosaminylerythronolide a derivative” (Taisho Pharmaceutical Co., Ltd., priority 1992, dated 1997).
In brackets after ≈: the same amount, converted by molar mass. Like-named read-outs stand apart in the source and are kept apart here.

Key:
S. aureus 209P-JC = experiment: In vitro antibacterial activity (MIC), S. aureus 209P-JC; type: cell-based; conditions: Staphylococcus aureus, read-out: MIC value (Minimum Inhibitory Concentration)
Method: (§1) The in vitro antibacterial activity of the compound of the present invention against various experimental microorganism was measured using sensitive disc media (produced by Eiken Chemical Co.) according to the MIC measuring method specified by the Japan Chemotherpeutic Society. Comparative drug 1:3-deoxy-11-{2-[methyl(benzyl)amino]ethyl}amino-3-oxo-5-O-desosaminyl-6-O-methylerythronolide A 11-N,12-O-cyclic carbamate (described in EP patent No. 0487411), Comparative drug 2:3-deoxy-3-oxo-5-O-desosaminyl-6-O-methylerythronolide A 11,12-cyclic carbonate (described in EP patent No. 0487411), Comparative drug 3:6-O-methylerythromycin A and Comparative drug 4:azithromycin were used.

S. aureus Smith 4 [1] = experiment: In vitro antibacterial activity (MIC), S. aureus Smith 4; type: cell-based; conditions: Staphylococcus aureus
Method: as §1

E. faecalis CSJ 1212 = experiment: In vitro antibacterial activity (MIC), E. faecalis CSJ 1212; type: cell-based; conditions: Enterococcus faecalis
Method: as §1

S. aureus B1 = experiment: In vitro antibacterial activity (MIC), S. aureus B1; type: cell-based; conditions: Staphylococcus aureus
Method: as §1

H. influenzae ATCC19418 = experiment: In vitro antibacterial activity (MIC), H. influenzae ATCC19418; type: cell-based; conditions: Haemophilus influenzae, sensitive disc media, read-out: MIC value (Minimum Inhibitory Concentration)
Method: as §1

S. aureus Smith 4 [2] = experiment: In vivo antibacterial activity: protection effect against infection with S. aureus Smith 4 in mice; set-up: species or system male ICR mice; conditions: oral, 1 hour after inoculation, 7 days
Method: The injection protection effect of the compound of the present invention against infectious bacteria (S. aureus Smith 4) was studied using 8 male ICR mice, 4-week-old, for each group and using Comparative drugs 1, 2 and 3 (as described in Experiment 1). Infectious bacteria (S. aureus Smith 4) were incubated for 18 hours, and diluted with a saline solution containing 5% mucin and heart infusion agar, and 0.5 ml of which was inoculated intraperitoneally to mice. An hour after inoculation of bacteria, the drug suspended in 5% gum arabic was administered orally, followed by judgement of life and death during 7 days.

[3] = Concentration in mouse serum after oral administration; type: in vivo, male ICR mice; conditions: dose not given; for AUC / Cmax: mouse serum; for concentration at 0.25 h / concentration at 0.5 h / concentration at 1 h / concentration at 2 h / concentration at 4 h / concentration at 6 h: mouse, serum; for concentration at 0.5 h: 0.50 hr
Method: Concentration of the compound of the present invention in mouse serum was determined by using 10 male ICR mice, 4-week-old, for each group and using Comparative drugs 2 and 3 (as described in Experiment 1). The drug suspended in 5% gum arabic was administered orally to mice, the blood was collected with lapse of time, and the serum was separated. Concentration of the drug in the serum was measured by using M. luteus ATCC 9341 as approved bacteria according to the papar-disc method.

[4] = S. aureus 209P-JC, sensitive disc media
[5] = SMITH4, S. aureus Smith 4, sensitive disc media, read-out: MIC value (Minimum Inhibitory Concentration)
[6] = CSJ1212, E. faecalis CSJ 1212, sensitive disc media, read-out: MIC value (Minimum Inhibitory Concentration)
[7] = S. aureus B1, sensitive disc media, read-out: MIC value (Minimum Inhibitory Concentration)
[8] = B1, read-out: MIC value (Minimum Inhibitory Concentration)

Structure (SMILES)	MIC (S. aureus 209P-JC; [4]) [mg/L]	MIC (S. aureus Smith 4 [1]; [5]) [mg/L]	MIC (E. faecalis CSJ 1212; [6]) [mg/L]	MIC (S. aureus B1; [7]) [mg/L]	MIC (H. influenzae ATCC19418) [mg/L]	Number of Survival (n = 8) (S. aureus Smith 4 [2]; 0.1 mg/mouse)	Number of Survival (n = 8) (S. aureus Smith 4 [2]; 0.4 mg/mouse)	Number of Survival (n = 8) (S. aureus Smith 4 [2]; 1.6 mg/mouse)	AUC [3] [µg·h/mL]	Cmax [3] [µg/mL]	concentration at 0.25 h [3] [µg/mL]	concentration at 0.5 h [3] [µg/mL]	concentration at 1 h [3] [µg/mL]	concentration at 2 h [3] [µg/mL]	concentration at 4 h [3] [µg/mL]	MIC (S. aureus 209P-JC; 209P) [mg/L]	MIC (S. aureus B1; [8]) [mg/L]	concentration at 6 h ([3]; 6 hr) [µg/mL]	other results
CC[C@H]1OC(=O)[C@H](C)C(=O)[C@H](C)[C@@H](O[C@@H]2O[C@H](C)C[C@H](N(C)C)[C@H]2O)[C@](C)(OC)C[C@@H](C)C(=O)[C@H](C)[C@H]2OC(=O)O[C@@]21C [Comparative drug 2, 3-deoxy-3-oxo-5-O-desosaminyl-6-O-methylerythronolide A 11,12-cyclic carbonate]	0.1 (≈ 0.163 µM)	0.1 (≈ 0.163 µM)	0.05 (≈ 0.0815 µM)	1.56 (≈ 2.54 µM)	25 (≈ 40.7 µM)	2	8	8	1.37	0.41	0.31	0.41	0.27	0.28	0.26	–	–	–	Concentration in mouse serum ([3]; 6 hr): 0 µg/mL
CC[C@H]1OC(=O)[C@H](C)C(=O)[C@H](C)[C@@H](O[C@@H]2O[C@H](C)C[C@H](N(C)C)[C@H]2O)[C@](C)(OC)C[C@@H](C)C(=O)[C@H](C)[C@H]2N(CCN(C)Cc3ccccc3)C(=O)O[C@]12C [Comparative drug 1, 3-deoxy-11-{2-[methyl(benzyl)amino]ethyl}amino-3-oxo-5-O-desosaminyl-6-O-methylerythronolide A 11-N,12-O-cyclic carbamate]	–	0.1 (≈ 0.132 µM)	–	0.39 (≈ 0.513 µM)	6.25 (≈ 8.22 µM)	2	2	7	–	–	–	–	–	–	–	0.1 (≈ 0.132 µM)	–	–	MIC (E. faecalis CSJ 1212; CSJ1212, read-out: MIC value (Minimum Inhibitory Concentration)): 0.1 mg/L (≈ 0.132 µM)
CC[C@H]1OC(=O)[C@H](C)C(=O)[C@H](C)[C@@H](O[C@@H]2O[C@H](C)C[C@H](N(C)C)[C@H]2O)[C@](C)(OC)C[C@@H](C)C(=O)[C@H](C)[C@H]2NC(=O)O[C@@]21C [Compound 1, 11-amino-3,11-dideoxy-3-oxo-5-O-desosaminyl-6-O-methylerythronolide A 11-N,12-O-cyclic carbamate]	–	–	0.05 (≈ 0.0816 µM)	–	6.25 (≈ 10.2 µM)	8	8	8	2.9	1.17	0.23	1.17	0.77	0.6	0.44	0.05 (≈ 0.0816 µM)	0.2 (≈ 0.326 µM)	0.05	MIC (S. aureus Smith 4 [1]; SMITH4, read-out: MIC value (Minimum Inhibitory Concentration)): 0.1 mg/L (≈ 0.163 µM)
CC[C@H]1OC(=O)[C@H](C)[C@@H](O[C@H]2C[C@@](C)(OC)[C@@H](O)[C@H](C)O2)[C@H](C)[C@@H](O[C@@H]2O[C@H](C)C[C@H](N(C)C)[C@H]2O)[C@](C)(OC)C[C@@H](C)C(=O)[C@H](C)[C@@H](O)[C@]1(C)O [Comparative drug 3, 6-O-methylerythromycin A]	0.1 (≈ 0.134 µM)	0.1 (≈ 0.134 µM)	3.13 (≈ 4.18 µM)	–	12.5 (≈ 16.7 µM)	3	6	8	0.88	0.34	0.29	0.33	0.34	0.11	0.11	–	> 100	0.04	–
CC[C@H]1OC(=O)[C@H](C)[C@@H](O[C@H]2C[C@@](C)(OC)[C@@H](O)[C@H](C)O2)[C@H](C)[C@@H](O[C@@H]2O[C@H](C)C[C@H](N(C)C)[C@H]2O)[C@](C)(O)C[C@@H](C)CN(C)[C@H](C)[C@@H](O)[C@]1(C)O [Comparative drug 4, azithromycin]	20 (≈ 26.7 µM)	0.39 (≈ 0.521 µM)	6.25 (≈ 8.34 µM)	> 100	6.25 (≈ 8.34 µM)	–	–	–	–	–	–	–	–	–	–	–	–	–	–
